How the values were obtained:
[1] = system: Human immunodeficiency virus 1; assay: Selectivity ratio of EC50 for antiviral activity against GS-9160-resistant HIV1 selected after 5 passages to EC50 for antiviral activity against wild-type HIV1 3B; type: functional
[2] = system: Human immunodeficiency virus 1; assay: Selectivity ratio of EC50 for antiviral activity against GS-9160-resistant HIV1 selected after 9 passages to EC50 for antiviral activity against wild-type HIV1 3B; type: functional
[3] = system: Human immunodeficiency virus 1; assay: Selectivity ratio of EC50 for antiviral activity against EFV-resistant HIV1 selected after 7 passages to EC50 for antiviral activity against wild-type HIV1 3B; type: functional
[4] = system: Human immunodeficiency virus 1; assay: Selectivity ratio of EC50 for antiviral activity against 3TC-resistant HIV1 selected after 8 passages to EC50 for antiviral activity against wild-type HIV1 3B; type: functional
[5] = system: Human immunodeficiency virus 1; assay: Selectivity ratio of EC50 for antiviral activity against GS-9160-resistant HIV1 selected after 8 passages to EC50 for antiviral activity against wild-type HIV1 3B; type: functional
[6] = system: Human immunodeficiency virus 1; assay: Selectivity ratio of EC50 for antiviral activity against 3TC-resistant HIV1 selected after 4 passages to EC50 for antiviral activity against wild-type HIV1 3B; type: functional
[7] = system: Human immunodeficiency virus 1; assay: Selectivity ratio of EC50 for antiviral activity against APV-resistant HIV1 selected after 4 passages to EC50 for antiviral activity against wild-type HIV1 3B; type: functional
[8] = system: Human immunodeficiency virus 1; assay: Selectivity ratio of EC50 for antiviral activity against APV-resistant HIV1 selected after 2 passages to EC50 for antiviral activity against wild-type HIV1 3B; type: functional
[9] = system: Human immunodeficiency virus 1; assay: Selectivity ratio of EC50 for antiviral activity against GS-9160-resistant HIV1 selected after 6 passages to EC50 for antiviral activity against wild-type HIV1 3B; type: functional
[10] = system: Human immunodeficiency virus 1; assay: Antiviral activity against HIV1 infected in SupT1 cells assessed as accumulation of late RT products after 12 hrs; type: functional, organism-based; conditions: Human immunodeficiency virus 1, SUP-T1, 12 h
[11] = Cytotoxicity against human SupT1 cells infected with HIV1 3B; type: cell-based, SUP-T1; conditions: SupT1 cells infected with HIV-1 3B
[12] = system: Human immunodeficiency virus 1; assay: Selectivity ratio of EC50 for antiviral activity against EFV-resistant HIV1 selected after 3 passages to EC50 for antiviral activity against wild-type HIV1 3B; type: functional
[13] = system: Human immunodeficiency virus 1; assay: Antiviral activity against HIV1 infected in SupT1 cells assessed as accumulation of integrated junction products after 48 hrs by Alu-PCR assay; type: functional, organism-based; conditions: Human immunodeficiency virus 1, SUP-T1, 48 h
[14] = Cytotoxicity against human MT4 cells infected with HIV1 3B by three fold dilution method in presence of 10% FBS; type: cell-based; conditions: MT4 cells infected with HIV-1 3B
[15] = system: Human immunodeficiency virus 1; assay: Antiviral activity against HIV1 3B infected in human MT-2 cells by two fold dilution method in presence of 10% FBS, HSA and alpha1-AGP; type: functional, organism-based; conditions: Human immunodeficiency virus 1, 3B, MT2
[16] = system: Human immunodeficiency virus 1; assay: Antiviral activity against HIV1 3B infected in human MT-4 cells by two fold dilution method in presence of 10% FBS; type: functional, organism-based; conditions: Human immunodeficiency virus 1, 3B, MT4
[17] = system: Human immunodeficiency virus 1; assay: Antiviral activity against HIV1 3B infected in human MT-2 cells by two fold dilution method in presence of 10% FBS; type: functional, organism-based; conditions: Human immunodeficiency virus 1, 3B, MT2
[18] = Cytotoxicity against human uninfected MT2 cells by three fold dilution method in presence of 10% FBS
[19] = system: Human immunodeficiency virus 1; assay: Antiviral activity against HIV1 3B infected in SupT1 cells assessed as fold increase in viral 2-LTR circles accumulation after […] postinfection by TaqMan real-time PCR; type: functional, SUP-T1
[20] = system: Human immunodeficiency virus 1; assay: Antiviral activity against 0.001 MOI HIV1 BAL infected in human T lymphocyte cells by p24 antigen ELISA in presence of 10% FBS, HSA and alpha1-AGP; type: functional, organism-based; conditions: Human immunodeficiency virus 1, BAL
[21] = system: Human immunodeficiency virus 1; assay: Antiviral activity against 0.04 MOI HIV1 3B infected in human MT-2 cells by […] dilution method in presence of 100% human serum; conditions: Human immunodeficiency virus 1, 3B, MT2
[22] = system: Human immunodeficiency virus 1; assay: Antiviral activity against 0.01 MOI HIV1 3B infected in human MT-2 cells by two fold dilution method in presence of 100% human serum; type: functional, organism-based; conditions: Human immunodeficiency virus 1, 3B, MT2
[23] = system: Human immunodeficiency virus 1; assay: Antiviral activity against 0.001 MOI HIV1 BAL infected in human T lymphocyte cells by p24 antigen ELISA in presence of 10% FBS; type: functional, organism-based; conditions: Human immunodeficiency virus 1, BAL
[24] = Cytotoxicity against human T lymphocyte cells uninfected by XTT method in presence of 10% FBS
[25] = system: Human immunodeficiency virus 1; assay: Antiviral activity against 0.02 MOI HIV1 3B infected in human MT-2 cells by two fold dilution method in presence of 100% human serum; type: functional, organism-based; conditions: Human immunodeficiency virus 1, 3B, MT2
[26] = system: Human immunodeficiency virus 1; assay: Selectivity ratio of EC50 for antiviral activity against HIV1 harboring L74M mutation in catalytic core domain of integrase to EC50 for antiviral activity against wild-type HIV1 3B; type: functional
[27] = system: Human immunodeficiency virus 1; assay: Selectivity ratio of EC50 for antiviral activity against HIV1 harboring E138K mutation in catalytic core domain of integrase to EC50 for antiviral activity against wild-type HIV1 3B; type: functional
[28] = system: Human immunodeficiency virus 1; assay: Selectivity ratio of EC50 for antiviral activity against HIV1 harboring E92V mutation in catalytic core domain of integrase to EC50 for antiviral activity against wild-type HIV1 3B; type: functional
[29] = system: Human immunodeficiency virus 1; assay: Selectivity ratio of EC50 for antiviral activity against NNRTI-resistant HIV1 harboring RTK103N mutant gene to EC50 for antiviral activity against wild-type HIV1 3B; type: functional
[30] = system: Human immunodeficiency virus 1; assay: Selectivity ratio of EC50 for antiviral activity against HIV1 harboring E92V, G140S and V151A mutation in catalytic core domain of integrase to EC50 for antiviral activity against wild-type HIV1 3B; type: functional
[31] = system: Human immunodeficiency virus 1; assay: Selectivity ratio of EC50 for antiviral activity against HIV1 harboring G140S mutation in catalytic core domain of integrase to EC50 for antiviral activity against wild-type HIV1 3B; type: functional
[32] = system: Human immunodeficiency virus 1; assay: Selectivity ratio of EC50 for antiviral activity against HIV1 harboring N155S mutation in catalytic core domain of integrase to EC50 for antiviral activity against wild-type HIV1 3B; type: functional
[33] = system: Human immunodeficiency virus 1; assay: Selectivity ratio of EC50 for antiviral activity against HIV1 harboring E138K and Q148K mutation in catalytic core domain of integrase to EC50 for antiviral activity against wild-type HIV1 3B; type: functional
[34] = system: Human immunodeficiency virus 1; assay: Selectivity ratio of EC50 for antiviral activity against HIV1 harboring T66I mutation in catalytic core domain of integrase to EC50 for antiviral activity against wild-type HIV1 3B; type: functional
[35] = system: Human immunodeficiency virus 1; assay: Selectivity ratio of EC50 for antiviral activity against PI-resistant HIV1 harboring […], V82A and L90M mutant gene to EC50 for antiviral activity against wild-type HIV1 3B; type: functional
[36] = system: Human immunodeficiency virus 1; assay: Selectivity ratio of EC50 for antiviral activity against NRTI-resistant HIV1 harboring RTK65R mutant gene to EC50 for antiviral activity against wild-type HIV1 3B; type: functional
[37] = system: Human immunodeficiency virus 1; assay: Selectivity ratio of EC50 for antiviral activity against HIV1 harboring E92V and V151A mutation in catalytic core domain of integrase to EC50 for antiviral activity against wild-type HIV1 3B; type: functional
[38] = system: Human immunodeficiency virus 1; assay: Selectivity ratio of EC50 for antiviral activity against NNRTI-resistant HIV1 harboring RTY181C mutant gene to EC50 for antiviral activity against wild-type HIV1 3B; type: functional
[39] = system: Human immunodeficiency virus 1; assay: Selectivity ratio of EC50 for antiviral activity against HIV1 harboring V151A mutation in catalytic core domain of integrase to EC50 for antiviral activity against wild-type HIV1 3B; type: functional
[40] = system: Human immunodeficiency virus 1; assay: Selectivity ratio of EC50 for antiviral activity against NRTI-resistant HIV1 harboring RT-6TAMs mutant gene to EC50 for antiviral activity against wild-type HIV1 3B; type: functional
[41] = system: Human immunodeficiency virus 1; assay: Selectivity ratio of EC50 for antiviral activity against HIV1 harboring N155H mutation in catalytic core domain of integrase to EC50 for antiviral activity against wild-type HIV1 3B; type: functional
[42] = system: Human immunodeficiency virus 1; assay: Selectivity ratio of EC50 for antiviral activity against HIV1 harboring E92Q mutation in catalytic core domain of integrase to EC50 for antiviral activity against wild-type HIV1 3B; type: functional
[43] = system: Human immunodeficiency virus 1; assay: Selectivity ratio of EC50 for antiviral activity against HIV1 harboring Q148K mutation in catalytic core domain of integrase to EC50 for antiviral activity against wild-type HIV1 3B; type: functional
[44] = system: Human immunodeficiency virus 1; assay: Selectivity ratio of EC50 for antiviral activity against PI-resistant HIV1 harboring […], L90M mutant gene to EC50 for antiviral activity against wild-type HIV1 3B; type: functional
[45] = system: Human immunodeficiency virus 1; assay: Selectivity ratio of EC50 for antiviral activity against HIV1 harboring G140S and Q148H mutation in catalytic core domain of integrase to EC50 for antiviral activity against wild-type HIV1 3B; type: functional
[46] = system: Human immunodeficiency virus 1; assay: Selectivity ratio of EC50 for antiviral activity against HIV1 harboring L74M and E92V mutation in catalytic core domain of integrase to EC50 for antiviral activity against wild-type HIV1 3B; type: functional
[47] = system: Human immunodeficiency virus 1; assay: Selectivity ratio of EC50 for antiviral activity against NRTI-resistant HIV1 harboring RTM184V mutant gene to EC50 for antiviral activity against wild-type HIV1 3B; type: functional

CC(C)CN(C[C@@H](O)[C@H](Cc1ccccc1)NC(=O)O[C@H]1CCOC1)S(=O)(=O)c1ccc(N)cc1
Ratio EC50 [1]: 1 | Ratio EC50 [2]: 1.5 | Ratio EC50 [3]: 1.6 | Ratio EC50 [4]: 0.9 | Ratio EC50 [5]: 4 | Ratio EC50 [6]: 1.6 | Ratio EC50 [7]: 8.7 | Ratio EC50 [8]: 3.4 | Ratio EC50 [9]: 1.5 | EC50 [10]: > 1000 nM | CC50 [11]: 96000 nM | Ratio EC50 [12]: 1.2 | EC50 [13]: > 1000 nM

Cc1nnc(C(=O)NC(C)(C)c2nc(C(=O)NCc3ccc(F)cc3)c(O)c(=O)n2C)o1
CC50 [14]: 58200 nM | EC50 [15]: 18 nM | EC50 [16]: 8 nM | EC50 [17]: 3 nM | CC50 [18]: > 100000 nM

COc1cc2c(cc1Cc1cccc(Cl)c1F)c(=O)c(C(=O)O)cn2[C@@H](CO)C(C)C
fold change (FC) [19]: 2.3 | CC50 [14]: 4000 nM | EC50 [15]: 24 nM | EC50 [20]: 16 nM | EC50 [16]: 0.17 nM | EC50 [21]: 207 nM | EC50 [10]: > 1000 nM | CC50 [11]: 5300 nM | EC50 [22]: 83 nM | EC50 [23]: 0.2 nM | EC50 [17]: 0.6 nM | CC50 [24]: 40000 nM | CC50 [18]: 8000 nM | EC50 [25]: 121 nM | EC50 [13]: 0.3 nM

CC(C)c1nc(COC(N)=O)n(Cc2ccncc2)c1Sc1cc(Cl)cc(Cl)c1 [CAPRAVIRINE]
Ratio EC50 [26]: 1 | Ratio EC50 [27]: 3 | Ratio EC50 [28]: 3 | Ratio EC50 [29]: 0 | Ratio EC50 [30]: 3 | Ratio EC50 [31]: 2 | Ratio EC50 [32]: 6 | Ratio EC50 [33]: 3 | Ratio EC50 [34]: 2 | Ratio EC50 [35]: 1 | Ratio EC50 [36]: 0.4 | Ratio EC50 [37]: 2 | Ratio EC50 [38]: 89 | Ratio EC50 [39]: 4 | Ratio EC50 [40]: 762 | Ratio EC50 [41]: 6 | Ratio EC50 [42]: 1 | Ratio EC50 [43]: 1 | Ratio EC50 [44]: 1 | EC50 [17]: 0.2 nM | Ratio EC50 [45]: 0.2 | Ratio EC50 [46]: 3 | Ratio EC50 [47]: 1
